In KR20140034898A, “헤테로시클릭 술폰아미드 유도체” (노파르티스 아게, priority 2011, dated 2012):

Legend:
[1] = system: A375 cells [A375 세포]; experiment: A375 cell viability assay (XTT); assay type: cell-based; details: Homo sapiens, A-375, 72 h, 3 days after compound addition
[2] = biological target: BRAF-MEK-ERK cascade [BRAF-MEK-ERK 캐스케이드]; experiment: BRAF-MEK-ERK cascade assay (TR-FRET, recombinant enzymes); assay type: biochemical, human; details: mean ± SEM, n=3; 100 μM ATP; 45 min pre-incubation, 90 min kinase reaction
[3] = system: A375 P-Erk; experiment: A375 P-Erk (In-Cell-Western); assay type: cell-based; details: A-375; A375 human melanoma cells, 3 h compound treatment, triplicate; 100% inhibition = reference inhibitor at highest test concentration
[4] = Pharmacokinetics in athymic nude rats; assay type: in vivo, rat; details: one-way ANOVA versus Example 1

| GI50 [1] [nM] | IC50 [2] [nM] | EC50 [3] [nM] | PK parameters compared with Example 1 [4] | Compound |
| --- | --- | --- | --- | --- |
| 17.6 | 2.1 ± 0.58 | 12.2 | – | O=S(=O)(Nc1c(Nc2ccc(I)cc2F)c(F)c(F)c2ccoc12)C1(CC(O)CO)CC1 (racemic) [실시예 1, 1-(2,3-디히드록시-프로필)-시클로프로판술폰산 [4,5-디플루오로-6-(2-플루오로-4-아이오도-페닐아미노)-벤조푸란-7-일]아미드] |
| 13.4 | 2 ± 0.25 | 6.4 | 증진된 PK-파라미터 | O=S(=O)(Nc1c(Nc2ccc(I)cc2F)c(F)c(F)c2ccoc12)C1(C[C@H](O)CO)CC1 (single isomer, unassigned) [실시예 1A] |
| 29.6 | 1.6 ± 0.1 | 15.6 | 증진된 PK-파라미터 | O=S(=O)(Nc1c(Nc2ccc(I)cc2F)c(F)c(F)c2ccoc12)C1(C[C@@H](O)CO)CC1 (single isomer, unassigned) [실시예 1B] |
